Values quoted from earlier work in patent US9409968B2, “Toll-like receptor-based biosensors” (University of Massachusetts, priority 2009, dated 2016).

System: lupus-prone mice
Conditions: administered to lupus-prone mice

5′-TGCTCCTGGAGGGGTTGT-3′ (listed as DNA, chemistry not given here) [IRS 954]
autoantibody production: reduction of autoantibody production
disease symptoms: amelioration of disease symptoms
